Laboratory results taken from US20050014742A1, “Use of inhibitors of the y2 receptor of neuropeptide y in the treatment of alcoholism” (priority 2001, published 2005).
“Also recorded” adds a separate entry of the source.

Assays:
Assay type in all cases: in vivo, rat
[1] = system: rats; assay: Preliminary dose-finding experiments (sedation); conditions: dose of 3 nmol i.c.v.
Protocol: […] […] The drug was dissolved in 0.9% NaCl and injected 45 min prior to onset of sessions, in a volume of 10 μl over a period of 2 min interval. The injection cannula was left in place for an additional minute to prevent back flow.

[2] = system: Male Wistar rats; assay: Operant ethanol self-administration after intracerebroventricular injection
Protocol: Male Wistar rats (Charles River, Hamburg, Germany), appr. 225 g at start of experiment were used for the experiments from which data are presented. For a replication experiment (see Results), Wistar males of the same age but delivered by Mollegard, Ry, Denmark, were used. Subjects were housed on a reversed light-cycle (lights off 11 am, on 11 pm). Following training for operant responding (see below), surgery was carried out for unilateral cannula implantation. Rats were anaesthetized with ketaminelxylazine (80 mg/kg and 15 mg/kg) and placed in a stereotaxic apparatus (Kopf). Stainless steel guide cannulas (23 gauge, PlasticOne, Roanoke, Va.) aimed at the lateral ventricle were implanted and secured to the skull with stainless screws and dental cement. Final injection coordinates were: A=−0.8, L=±1.4, V=−4.3 from Bregma (15). Animals were allowed to recover for one week, during which time they were only repeatedly handled, in order to reduce the stress of subsequent intracerebroventricular injections. They were then reintroduced to the operant task (see below), and allowed to re-establish their rates of operant responding for two weeks. Finally, the actual Latin-square design was initiated, and carried out over the course of three weeks.
BIIE0246 ([…]; kind gift of Boehringer Ingelheim) or saline was injected i.c.v. via an injection cannula (28-gauge) connected to a 10 μl Hamilton syringe with a low-volume plastic tubing. […] The drug was dissolved in 0.9% NaCl and injected 45 min prior to onset of sessions, in a volume of 10 μl over a period of 2 min interval. The injection cannula was left in place for an additional minute to prevent back flow.
Following completion of training, rats were subjected to surgery, allowed to recover for one week and to stabilize their baseline responding for two weeks, after which a Latin Square design was initiated and carried out over three weeks. During each of these weeks, rats were run Monday-Friday, and drug administration was on Friday. […] In order to retain a balanced design, the analysis presented here includes only those subjects, which completed all treatments. An analysis based on all subjects, with missing values for failed injections, produced a virtually identical result.

[3] = system: Wistar rats; assay: Exploratory locomotor activity after intracerebroventricular administration; conditions: for Horizontal locomotor activity / Vertical locomotor activity (rearings): 30 min test period, n=6, mean ± SEM
[4] = Wistar rats from Mollegard, separate experiment (data not shown)

## N=C(N)NCCC[C@H](NC(=O)CC1(CC(=O)N2CCN(C3c4ccccc4NC(=O)c4ccccc43)CC2)CCCC1)C(=O)NCCn1c(=O)n(-c2ccccc2)n(-c2ccccc2)c1=O (stereo partly drawn) [BIIE0246, (S)—N^2-//1-/2-/4-/(R,S)-5,11-Dihydro-6(6H)-oxodibenz/b,elazepin-11-yl/-1-piperazinyl/-2-oxoethyl/-cyclopentyl/acetyl/-N-/2-/1,2-dihydro-3,5(4H)-dioxo-1,2-diphenyl-3H-1,2,4-triazol-4-yl/-ethyl/-argininamide]
[1]
  Sedative effect: marked sedative effects
[2]; 1.0 nmol i.c.v., 30 min session, vs saline, Tukey HSD p<0.001
  Ethanol-reinforced responses over time (cumulative, 5 min intervals): present during min 10-30; also recorded: significantly less during the last 20 but not during the initial 10 min
[2]; 1.0 nmol i.c.v., 45 min before 30 min session, Wistar rats (Charles River), p<0.05 vs saline and vs 0.3 nmol
  Reduction of total responding for ethanol: ~40%
[2]; 1.0 nmol i.c.v., n=13, p=0.013 (FIG. 1A)
  Responding for ethanol: significantly reduced
[2]; [4]
  Effect on saccharin solution, replication experiment: no effect
  Suppression of responding for ethanol, replication experiment: 40%
[2]; i.c.v., 0, 0.3 and 1.0 nmol, one way ANOVA, n=13, p=0.013
  Total responding for ethanol (overall treatment effect): significantly reduced
[2]; i.c.v., 0.3 and 1.0 nmol, p=0.25, Charles River Wistar rats
  Responding for saccharin: unaffected
[3]; 0.3 nmol i.c.v.
  Horizontal locomotor activity: 2873.8 ± 572.0
  Vertical locomotor activity (rearings): 756.8 ± 122.9
[3]; 1.0 nmol i.c.v.
  Horizontal locomotor activity: 2630.2 ± 480.0
  Vertical locomotor activity (rearings): 503.3 ± 113.4
[3]; i.c.v., 0.3 and 1.0 nmol, n=6, p=0.74 horizontal, p=0.17 vertical
  Effect of treatment on horizontal and vertical locomotor activity: Neither horisontal (n=6; F[2,15]=0.3; p=0.74) nor vertical activity (F[2,15]=2.0; p=0.17) was affected
